# Data published in patent US11827703B2, “Compositions and methods related to anti-CD19 antibody drug conjugates” (LegoChem Biosciences, Inc., priority 2018, dated 2023).
# Substitutions are numbered along the chain they refer to.
# B1: 9G8: anti-CD19 antibody, VH SEQ ID NO: 6, VL SEQ ID NO: 10 (antibody, V domains shown)
# VH: EVQLVQSGAEVKKPGESLKISCKGSGYSFTSYWIGWVRQMPGKGLEWMGIIYPGDSDTRYSPSFQGQVTISADKSISTAYLQWSSLKASDTAMYYCARGVSGIYNLHGFDIWGQGTLVTVSS
# VL: DIQMTQSPSSLSASVGDRVTITCRASQSISSYLNWYQQKPGKAPKLLIYAASSLQSGVPSRFSGSGSGTDFTLTISSLQPEDFATYYCQQGRFGSPFTFGQGTKVEIK
# B2: 7F11: anti-CD19 antibody, VH SEQ ID NO: 6, VL SEQ ID NO: 8 (antibody, V domains shown)
# VH: B1 VH
# VL: B1 VL with R92M, F93W, G94D, S95N
# B3: 5F5: anti-CD19 antibody, VH SEQ ID NO: 2, VL SEQ ID NO: 4 (antibody, V domains shown)
# VH: B1 VH with V100I
# VL: B1 VL with G91A, R92S, F93L, G94D, F97L
# B4: F6: anti-CD19 antibody, VH SEQ ID NO: 12, VL SEQ ID NO: 14 (antibody, V domains shown)
# VH: EVQLVQSGAEVKKPGESLKISCKGSGYSFTSYWIGWVRQMPGKGLEWMGIIYPGDSDTRYSPSFQGQVTISADKSISTAYLQWSSLKASDTAMYYCARVWYYDFWSGADAFDIWGQGTLVTVSS
# VL: EIVMTQSPATLSVSPGERATLSCRASQSVSSNLAWYQQKPGQAPRLLIYGASTRATGIPARFSGSGSGTEFTLTISSLQSEDFAVYYCQQGSLEAPQTFGQGTKVEIK
# B5: 10D8: anti-CD19 antibody, VH SEQ ID NO: 20, VL SEQ ID NO: 22 (antibody, V domains shown)
# VH: QVQLVQSGAEVKKPGSSVKVSCKASGGTFSSYAISWVRQAPGQGLEWMGGIIPIFGTANYAQKFQGRVTITADESTSTAYMELSSLRSEDTAVYYCARDRGYDYVWGSYRYGAFDIWGQGTLVTVSS
# VL: QSALTQPASVSGSPGQSITISCTGTSSDVGGYNYVSWYQQHPGKAPKLMIYEVSNRPSGVSNRFSGSKSGNTASLTISGLQAEDEADYYCSSYDVWVPHMVFGGGTKLTVL
# B6: 7F1: anti-CD19 antibody, VH SEQ ID NO: 16, VL SEQ ID NO: 18 (antibody, V domains shown)
# VH: EVQLVQSGAEVKKPGESLKISCKGSGYSFTSYWIGWVRQMPGKGLEWMGIIYPGDSDTRYSPSFQGQVTISADKSISTAYLQWSSLKASDTAMYYCARGDYWTGFAYWGQGTLVTVSS
# VL: QSVLTQPPSVSAAPGQKVTISCSGSSSNIGNNYVSWYQQLPGTAPKLLIYDNNKRPSGIPDRFSGSKSGTSATLGITGLQTGDEADYYCGTWDLGWNSVFGGGTKLTVL
# Columns and labels:
# [1] = test system: Ramos Burkitt's lymphoma cells; assay: Ramos non-Hodgkin lymphoma xenograft model; details: Ramos s.c. xenograft, i.v. treatment
# Protocol: Anti-tumor activity of anti-CD19 (9G8) Antibody Drug Conjugate was evaluated in immunodeficient CB-17 scid mice subcutaneously engrafted with Ramos Burkitt's lymphoma cells.
# CB17-SCID mice (Charles River), aged 7 weeks, were implanted subcutaneously (s.c.) in the right flank with 5×10^6 Ramos cells (obtained from ATCC). Tumor volumes (calculated using the formula TV=(0.5×[length×width^2]) were measured by digital caliper 3 times a week and mice were recruited for treatment when tumor volumes reached 200-250 mm^3. Mice were assigned to different groups (see table below) in order to obtain homogeneous mean tumor volumes between cohorts (n=7-8 mice per group. Mean tumor volume: hIgG1 control 1 mg/kg, 1 inj.: 243 mm^3±26; anti-CD19 CaaX 1 mg/kg, 1 inj.: 233 mm^3±18; hIgG1 ADC 1 mg/kg, 1 inj.: 224 mm^3±20; anti CD19 ADC 0.33 mg/kg, 1 inj.: 242 mm^3±28; anti CD19 ADC 0.66 mg/kg, 1 inj.: 234 mm^3±23; anti CD19 ADC 1 mg/kg, 1 inj.: 234 mm^3±31; anti CD19 ADC 0.33 mg/kg 1 inj./week during 3 weeks: 251 mm^3±25; rituximab 6 mg/kg, 1 inj.: 242 mm^3±31). Single dose or multiple dose (only for cohort anti-CD19 ADC 0.33 mg/kg 1×/week, 3 weeks) treatments were injected i.v. in the tail vein. Mice were then monitored for body weight 3 times a week and for tumor growth 3 times a week until the endpoint of the experiment (tumor volume=1500 mm^3).
# [2] = test system: SU-DHL-6; assay: Anti-proliferation assay (CellTiter-Glo), SU-DHL-6; assay type: cell-based, human; details: SU-DHL-6, 96 hour treatment
# Protocol: (§1) Commercially available 6 B cell lymphoma cancer cell lines DOHH-2 (DSMZ, #ACC 47), NALM-6 (DSMZ, #ACC 58), Ramos (ECACC, #85030802), SU-DHL-6 (ATCC, #CRL-2959), WSU-DLCL2 (DSMZ, #ACC 575) and WSU-NHL (DSMZ, #ACC 58) were used. SG2057 was used as the drug, free toxin. Each of the cancer cell lines was seeded in a 96-well plate at 2000 to 10000 per well for the 96 hour treatment group, incubated for 2 hours, and then treated with drug and ADC at a concentration of from 0.00025 to 100 nM (5-fold times serial dilutions). After 96 hours, the number of living cells was quantified using CellTiter-Glo Luminescent cell viability assay (Promega-G7573). Inhibition rate (IR) of the drug and ADC were determined by the following formula: IR (%)=(1−(RLU compound−RLU blank)/(RLU control−RLU blank))*100%. The inhibitions of different dose of samples were calculated in Excel file, and then were used to plot inhibition curve and evaluate related parameters, such as Bottom (%), Top (%) and Relative IC50. The IC50 for each experiment and treatment was calculated (See table below).
# [3] = test system: WSU-DLCL2; assay: Anti-proliferation assay (CellTiter-Glo), WSU-DLCL2; assay type: cell-based; details: WSU-DLCL2, 96 hour treatment
# Protocol: as §1
# [4] = test system: Ramos; assay: Anti-proliferation assay (CellTiter-Glo), Ramos; assay type: cell-based, human; details: 96 hour treatment
# Protocol: as §1
# [5] = test system: WSU-NHL; assay: Anti-proliferation assay (CellTiter-Glo), WSU-NHL; assay type: cell-based; details: 96 hour treatment
# Protocol: as §1
# [6] = test system: NALM6; assay: Anti-proliferation assay (CellTiter-Glo), NALM6; assay type: cell-based, human; details: NALM6, 96 hour treatment
# Protocol: as §1
# [7] = test system: DOHH2; assay: Anti-proliferation assay (CellTiter-Glo), DOHH2; assay type: cell-based; details: DOHH2, 96 hour treatment
# Protocol: as §1
# [8] = test system: cynomolgus CD19; assay: FACS binding to CHO cell line transfected with cynomolgus CD19; parameters: species or system cynomolgus monkey; details: transfected CHO cynoCD19 cells, 10 to 0.01 μg/mL
# Protocol: The ability of the anti-CD19 antibodies to bind human and/or cynomolgus monkey CD19 was evaluated.
# In particular, the human IgG1 5F5, 7F11, 9G8, F6, 7F1, and 10D8 anti-CD19 antibodies were evaluated for their abilities to bind a CHO cell line transfected with cynomolgus CD19 and a negative control cell line (CHO). All incubations were prepared in FACS buffer (PBS, BSA 2%) at 4° C. Fc receptors on B cells were blocked with 10% mouse serum. Four doses of hIgG1 were tested: 10, 1, 0.1 and 0.01 μg/mL.
# [9] = test system: human B lymphocyte cell lines: Raji, Ramos, Nalm6, Su-DHL6, Su-DHL4, and Mec2; assay: FACS binding to human B lymphocyte cell lines; details: comparison of cell lines
# Protocol: The ability of various anti-CD19 antibodies of the disclosure to bind various human B lymphocyte cell lines was evaluated. In particular, the human IgG1 5F5, 7F11, 9G8, F6, 7F1, and 10D8 anti-CD19 antibodies were evaluated for their abilities to bind (i) six human B lymphocyte cell lines: Raji, Ramos, Nalm6, Su-DHL6, Su-DHL4, and Mec2, (ii) a CD19 silenced B cell line: Raji siRNA; and a negative cell line (Jurkat). All incubations were prepared in FACS buffer (PBS, BSA 2%) at 4° C. Fc receptors on B cells were blocked with 10% mouse serum. Four doses of hIgG1 were tested: 10, 1, 0.1 and 0.01 μg/mL. Cell surface bound hIgG1 were detected with a mouse anti-human IgG Fc-PE mAb.
molecule,measurement,setting,value
rituximab,mice reaching the tumor size endpoint (tumor volume=1500 mm^3),[1],four of seven mice reached the endpoint
same,survival to day 70,[1]; rituximab 6 mg/kg single,three survived to day 70
"C=C1C[C@H]2C=Nc3cc(OCCCCCOc4cc5c(cc4OC)C(=O)N4CC(=C)C[C@H]4C=N5)c(OC)cc3C(=O)N2C1 [Free dPBD (SG2057), SG2057]",IC50,[2],50 pM
same,IC50,[3],4 pM
same,IC50,[4],150 pM
same,IC50,[5],13 pM
same,IC50,[6],3.5 pM
same,IC50,[7],5.4 pM
B1,cross-reactivity with cynomolgus CD19,[8],clearly cross-reactive
B2,cross-reactivity with cynomolgus CD19,[8],slightly cross-reactive
B3,cross-reactivity with cynomolgus CD19,[8],slightly cross-reactive
B4,cross-reactivity with cynomolgus CD19,[8],slightly cross-reactive
B5,cross-reactivity with cynomolgus CD19,[8],did not bind
same,binding profile Nalm6 versus Raji cells,[9],bind better to Nalm6 than to Raji cells
B6,cross-reactivity with cynomolgus CD19,[8],did not bind
same,binding profile Nalm6 versus Raji cells,[9],bind better to Nalm6 than to Raji cells
